Data: ChEMBL document CHEMBL1201862, “PubChem BioAssay data set” (2004)
Active and inactive are the calls of the source.

Key:
[1] = target: Glycogen synthase kinase-3 alpha (Homo sapiens, UniProt P49840); assay: Inhibition of Human GSK-3 alpha Activity Measured in Biochemical System Using Microfluidics - 2063-06_Inhibitor_Dose_DryPowder_Activity_Set2. [Related pubchem assays (depositor defined):AID2709]
[2] = inhibitors of non-replicating M. tuberculosis, dose response, luciferase, dry powder (AID 651619); format: functional; settings: Mycobacterium tuberculosis
[3] = target: Glycogen synthase kinase-3 beta (Homo sapiens, UniProt P49841); assay: Inhibition of Human GSK-3 beta Activity Measured in Biochemical System Using Microfluidics - 2063-05_Inhibitor_Dose_DryPowder_Activity_Set2. [Related pubchem assays (depositor defined):AID2709]
[4] = inhibitors of non-replicating M. tuberculosis, dose response, luciferase, dry powder (AID 651620); format: functional; settings: Mycobacterium tuberculosis
Insulin-degrading enzyme [5] = target: T1, Insulin-degrading enzyme (Homo sapiens, UniProt P14735); assay: cellular IDE activation of Abeta substrate cleavage – fluorescence polarization, HEK cells, dose response (AID 588439); format: functional, cell-based
T1 sequence (P14735 whole entry): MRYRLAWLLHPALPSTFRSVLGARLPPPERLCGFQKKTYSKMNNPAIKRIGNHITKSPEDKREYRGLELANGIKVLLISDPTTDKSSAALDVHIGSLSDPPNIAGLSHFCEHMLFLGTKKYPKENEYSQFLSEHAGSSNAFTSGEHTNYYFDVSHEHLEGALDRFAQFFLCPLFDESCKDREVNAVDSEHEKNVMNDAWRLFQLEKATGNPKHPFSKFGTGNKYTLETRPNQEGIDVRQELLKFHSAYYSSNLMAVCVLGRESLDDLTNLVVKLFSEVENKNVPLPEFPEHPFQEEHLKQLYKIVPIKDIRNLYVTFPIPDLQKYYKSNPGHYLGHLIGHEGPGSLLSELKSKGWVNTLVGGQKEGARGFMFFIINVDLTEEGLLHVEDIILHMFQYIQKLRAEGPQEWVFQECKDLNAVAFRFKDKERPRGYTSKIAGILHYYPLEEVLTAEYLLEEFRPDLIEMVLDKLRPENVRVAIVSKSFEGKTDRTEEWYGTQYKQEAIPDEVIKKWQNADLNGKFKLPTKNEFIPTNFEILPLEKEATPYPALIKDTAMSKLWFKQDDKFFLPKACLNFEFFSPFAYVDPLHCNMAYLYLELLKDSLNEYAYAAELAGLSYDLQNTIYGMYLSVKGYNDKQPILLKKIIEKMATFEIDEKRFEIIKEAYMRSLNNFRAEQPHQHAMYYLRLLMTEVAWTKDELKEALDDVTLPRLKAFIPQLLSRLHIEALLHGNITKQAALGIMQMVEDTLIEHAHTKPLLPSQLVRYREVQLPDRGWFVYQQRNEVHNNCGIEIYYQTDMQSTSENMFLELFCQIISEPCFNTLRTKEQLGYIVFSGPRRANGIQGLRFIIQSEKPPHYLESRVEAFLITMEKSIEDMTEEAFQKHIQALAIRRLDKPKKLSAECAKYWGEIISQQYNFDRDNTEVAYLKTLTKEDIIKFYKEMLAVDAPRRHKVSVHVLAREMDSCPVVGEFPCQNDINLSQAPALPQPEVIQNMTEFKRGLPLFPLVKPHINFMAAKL

HEK293 [6] = assay: membrane integrity loss in HEK cells – cell-based, fluorescence, cytotoxicity control for IDE activator project, dose response (AID 588440); format: functional; settings: Homo sapiens;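 further: cytotoxicity by LDH release measuring loss of membrane integrity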
Insulin-degrading enzyme [7] = target: T1, Insulin-degrading enzyme; assay: recombinant IDE activation, cell-free – biochemical, fluorescence polarization, counter-screen for IDE activator project, dose response (AID 588681)
HEK293 [8] = assay: optical interference in Abeta FP readout, dose response, artefact control for IDE activator project, biochemical, fluorescence polarization (AID 588442); format: functional, cell-based; settings: Homo sapiens
Orexin receptor type 2 [9] = target: T2, Orexin receptor type 2 (Homo sapiens, UniProt O43614); assay: Counterscreen assay for antagonists of the orexin 1 receptor (OX1R; HCRTR1): Homogeneous Time Resolved Fluorescence (HTRF)-based cell-based dose response assay for antagonists of the orexin 2 receptor (OX2R; HCRTR2), run by assay provider.; format: functional
T2 sequence (O43614 whole entry): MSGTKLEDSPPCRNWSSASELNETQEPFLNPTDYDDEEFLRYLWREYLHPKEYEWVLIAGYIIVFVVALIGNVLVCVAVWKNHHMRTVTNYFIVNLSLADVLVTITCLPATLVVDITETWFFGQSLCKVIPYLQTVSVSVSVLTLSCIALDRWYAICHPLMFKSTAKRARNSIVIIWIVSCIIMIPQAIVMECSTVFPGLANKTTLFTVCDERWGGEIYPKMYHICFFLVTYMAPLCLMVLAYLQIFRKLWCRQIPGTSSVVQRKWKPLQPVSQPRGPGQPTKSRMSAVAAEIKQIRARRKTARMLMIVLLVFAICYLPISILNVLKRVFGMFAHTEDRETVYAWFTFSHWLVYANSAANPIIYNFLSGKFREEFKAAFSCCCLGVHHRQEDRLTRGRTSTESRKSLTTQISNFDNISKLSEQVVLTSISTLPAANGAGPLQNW

[10] = target: T3, Orexin/Hypocretin receptor type 1 (Homo sapiens, UniProt O43613); assay: (§1) Fluorescence-based cell-based high throughput dose response assay for antagonists of the orexin 1 receptor (OX1R; HCRTR1). [Related pubchem assays (depositor defined):AID434989, AID435008, AID463079, AID485270, AID492963, AID492964, AID492965, AID493232, AID504717, AID504718]; format: functional
T3 sequence (O43613 whole entry): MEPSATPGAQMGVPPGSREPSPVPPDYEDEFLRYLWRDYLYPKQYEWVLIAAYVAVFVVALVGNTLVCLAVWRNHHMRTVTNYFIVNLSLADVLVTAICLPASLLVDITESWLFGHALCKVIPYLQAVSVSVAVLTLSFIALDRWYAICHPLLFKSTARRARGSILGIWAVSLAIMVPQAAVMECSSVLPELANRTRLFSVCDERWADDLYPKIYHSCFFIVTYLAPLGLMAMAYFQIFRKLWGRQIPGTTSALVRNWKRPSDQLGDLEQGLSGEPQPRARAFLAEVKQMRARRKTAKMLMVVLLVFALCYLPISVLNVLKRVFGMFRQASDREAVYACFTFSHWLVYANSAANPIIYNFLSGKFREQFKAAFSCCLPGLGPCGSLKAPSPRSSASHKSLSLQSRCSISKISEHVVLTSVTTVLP

Orexin receptor type 2 [11] = target: T2, Orexin receptor type 2; assay: Counterscreen assay for antagonists of the orexin 1 receptor (OX1R; HCRTR1): Fluorescence-based cell-based dose response assay for antagonists of the orexin 2 receptor (OX2R; HCRTR2), run by assay provider.; format: functional
CHO-K1 = assay: (§2) Counterscreen for antagonists of the orexin 1 receptor (OX1R; HCRTR1): Homogeneous time resolved fluorescence (HTRF)-based cell-based dose response assay to identify antagonists of the parental CHO-K1 cell line. [Related pubchem assays (depositor defined):AID434989, AID435008, AID463079, AID485270, AID492963, AID492964, AID492965, AID493232, AID504699, AID504701]; format: functional; settings: Cricetulus griseus
[12] = as §2, with “Fluorescence-based” for “Homogeneous time resolved fluorescence (HTRF)-based”, “cell-based high throughput” for “cell-based”, “CHO” for “CHO-K1”; format: functional
[13] = target: T3, Orexin/Hypocretin receptor type 1; assay: as §1, with “Homogeneous Time Resolved Fluorescence (HTRF)-based” for “Fluorescence-based”; format: functional
[14] = target: T4, High affinity choline transporter 1 (Homo sapiens, UniProt Q9GZV3); assay: human choline transporter potentiators, potency – cell-based, 10-point CRC, membrane potential dye, dose response (AID 602376); format: functional
T4 sequence (Q9GZV3 whole entry): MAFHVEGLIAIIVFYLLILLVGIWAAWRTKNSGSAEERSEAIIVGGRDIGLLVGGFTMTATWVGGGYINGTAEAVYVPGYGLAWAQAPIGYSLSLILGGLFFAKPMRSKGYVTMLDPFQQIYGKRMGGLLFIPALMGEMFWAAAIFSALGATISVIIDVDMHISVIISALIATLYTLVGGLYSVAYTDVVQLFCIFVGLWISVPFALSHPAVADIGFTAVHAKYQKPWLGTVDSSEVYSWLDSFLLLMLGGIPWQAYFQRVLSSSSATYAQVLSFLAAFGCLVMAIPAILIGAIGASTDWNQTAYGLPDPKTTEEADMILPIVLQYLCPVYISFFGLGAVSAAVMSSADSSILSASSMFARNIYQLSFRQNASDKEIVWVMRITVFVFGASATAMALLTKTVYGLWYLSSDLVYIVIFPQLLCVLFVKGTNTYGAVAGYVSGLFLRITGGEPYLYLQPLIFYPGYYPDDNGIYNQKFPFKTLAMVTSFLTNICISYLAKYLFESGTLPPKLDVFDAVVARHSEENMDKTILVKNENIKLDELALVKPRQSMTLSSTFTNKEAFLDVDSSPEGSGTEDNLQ

Glycogen synthase kinase-3 beta, sequence (P49841 whole entry): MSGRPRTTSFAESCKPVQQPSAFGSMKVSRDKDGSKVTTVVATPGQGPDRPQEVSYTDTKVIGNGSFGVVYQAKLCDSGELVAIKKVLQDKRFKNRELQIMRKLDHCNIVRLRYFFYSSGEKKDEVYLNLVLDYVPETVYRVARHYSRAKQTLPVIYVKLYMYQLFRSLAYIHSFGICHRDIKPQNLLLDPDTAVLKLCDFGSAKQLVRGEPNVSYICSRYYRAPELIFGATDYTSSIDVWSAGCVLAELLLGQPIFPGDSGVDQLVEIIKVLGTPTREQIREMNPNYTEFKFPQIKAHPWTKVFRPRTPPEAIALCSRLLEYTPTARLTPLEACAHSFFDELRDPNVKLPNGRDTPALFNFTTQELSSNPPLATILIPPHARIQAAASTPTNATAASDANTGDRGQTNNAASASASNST
Glycogen synthase kinase-3 alpha, sequence (P49840 whole entry): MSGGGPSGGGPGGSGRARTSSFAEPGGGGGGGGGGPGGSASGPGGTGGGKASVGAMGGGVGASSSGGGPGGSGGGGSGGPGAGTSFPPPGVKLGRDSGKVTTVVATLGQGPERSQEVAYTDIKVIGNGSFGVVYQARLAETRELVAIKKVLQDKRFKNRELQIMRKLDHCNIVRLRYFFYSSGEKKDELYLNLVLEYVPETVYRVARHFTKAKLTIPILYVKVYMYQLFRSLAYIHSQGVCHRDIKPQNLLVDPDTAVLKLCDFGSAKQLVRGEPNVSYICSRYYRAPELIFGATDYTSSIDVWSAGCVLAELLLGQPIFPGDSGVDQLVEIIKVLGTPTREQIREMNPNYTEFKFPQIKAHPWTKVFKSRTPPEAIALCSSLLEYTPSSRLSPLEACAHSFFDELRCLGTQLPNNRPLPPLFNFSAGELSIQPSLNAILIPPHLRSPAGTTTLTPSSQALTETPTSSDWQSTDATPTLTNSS

Fc1ccc(CSc2nnc(-c3ccncc3)o2)cc1
AC50 [1]: 3.37 µM (active)
IC90 [2]: 4 µM (active)
AC50 [3]: 0.578 µM (active)
IC90 [4]: 4 µM (active)

O=C(NCC1CC1)c1onc(CSc2ccc(F)c(F)c2)c1C(=O)NCC1CC1
EC50 (Insulin-degrading enzyme [5]): > 54.7 µM (inactive)
IC50 (HEK293 [6]): > 89.3 µM (inactive)
EC50 (Insulin-degrading enzyme [7]): > 54.7 µM (inactive)
EC50 (HEK293 [8]): > 54.7 µM (inactive)

O=[N+]([O-])c1cccc(-c2nc(-c3cccs3)c(-c3cccs3)[nH]2)c1
IC50 (Orexin receptor type 2 [9]): 3.2 µM (active)
IC50 [10]: > 5.53 µM (active)
IC50 (Orexin receptor type 2 [11]): 28.8 µM (inactive)
IC50 (CHO-K1): > 66.2 µM (inactive)
IC50 [12]: > 49.8 µM (inactive)
IC50 [13]: 6.65 µM (active)

CC(C)c1ccccc1NC(=O)Cn1c(-c2ccccc2Cl)nc2ccccc21
EC50 [14]: 18.3 µM (active)
